Laboratory results published in patent US20110009351A1, “SCREENING ASSAY TO IDENTIFY CORRECTORS OF PROTEIN TRAFFICKING DEFECTS” (Traffick Therepeutics Inc., priority 2007, published 2011).
Entries after “also recorded” stand apart in the source; their conditions may differ. Where a name gives a salt, the structure may show the parent alone.

Legend:
[1] = molecular target: T1, F508del CFTR (Homo sapiens, UniProt P13569, DEL508-508); assay: YFP fluorescence quenching functional assay (iodide influx), HEK293 cells with F508del CFTR and halide sensitive YFP; format: cell-based; conditions: 10 μM, 24 h
T1 construct: expressed in transfected cells; host or cells: HEK293 Griptite cells stably expressing F508del CFTR, transiently transfected with halide-sensitive eYFP
Method in brief: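 HEK293 Griptite cells stably expressing F508del CFTR, transiently transfected with halide-sensitive eYFP, treated 24 h with 10 μM compound in triplicate, then stimulated 20 min with 25 μM forskolin, 45 μM IBMX and 50 μM genistein. YFP quench after 50 mM iodide imaged 15 times over 40 s on 150-300 cells/well.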

[2] = molecular target: T2, ΔF508-CFTR (Mus musculus, UniProt P26361, DEL508-508); assay: in vivo treatment of ΔF508-CFTR mice by gavage, Isc of freshly isolated ileum; conditions: 50 mg/kg by gavage, once per day, 2 days
T2 construct: from tissue; host or cells: ileal mucosa of homozygous ΔF508 mice (A11 ex vivo, A12 after gavage); salivary secretion in the living mouse (A13)
Description: Glafenine was tested ex vivo and in vivo using ileum from homozygous Δ508-CFTR mice (CFTR^tm1 Eur; van Doorninck et al., 1995) and wild-type littermates controls. Mice were 14-17 weeks old, weighed 24-30 g, and were genotyped by standard PCR methods using tail DNA. The mice were kept in a pathogen-free environment in the animal facility at McGill University and fed a high protein diet (SRM-A, Hope Farms, Woerden, NL) modified to contain pork instead of beef. All procedures followed Canadian Institutes of Health Research (CIHR) guidlines and were approved by the faculty Animal Care Committee. For ex vivo experiments, ileal mucosa was stripped of muscle and incubated in William's E-Glutamax medium supplemented with insulin (10 μg/ml), 100 U/ml penicillin, and 100 μg/ml streptomycin and dexamethasone (1.6 ng/ml) containing 0.1% DMSO (control) or DMSO containing glafenine for 5 h. The tissue was then rinsed repeatedly and mounted in Ussing chambers to measure […]. For in vivo experiments, mice were feed once per day by gavage with saline containing glafenine (50 mg/kg) or vehicle alone (0.1% DMSO). After 2 days of glafenine treatment the mice were euthanized under CO2, the intestine was dissected and the short circuit current was measured as described above.

[3] = molecular target: ΔF508-CFTR (Homo sapiens, UniProt P13569, DEL508-508); format: cell-based; parameters: which was then ligated into full length pNUT-CFTR linearized using Hpa1 and Pml1; expressed in transfected cells
Method in brief: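 BHK cells stably expressing 3HA-tagged ΔF508-CFTR (tags in fourth extracellular loop) treated with compound at 20 μM final for 24 h at 37° C. Surface ΔF508-CFTR measured on fixed, non-permeabilised cells by anti-HA/FITC immunofluorescence (488/510 nm), relative to untreated-well background; hits retested in duplicate, intrinsically fluorescent compounds excluded.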

T1 sequence (P13569 with tags, fused parts or gaps DEL508-508): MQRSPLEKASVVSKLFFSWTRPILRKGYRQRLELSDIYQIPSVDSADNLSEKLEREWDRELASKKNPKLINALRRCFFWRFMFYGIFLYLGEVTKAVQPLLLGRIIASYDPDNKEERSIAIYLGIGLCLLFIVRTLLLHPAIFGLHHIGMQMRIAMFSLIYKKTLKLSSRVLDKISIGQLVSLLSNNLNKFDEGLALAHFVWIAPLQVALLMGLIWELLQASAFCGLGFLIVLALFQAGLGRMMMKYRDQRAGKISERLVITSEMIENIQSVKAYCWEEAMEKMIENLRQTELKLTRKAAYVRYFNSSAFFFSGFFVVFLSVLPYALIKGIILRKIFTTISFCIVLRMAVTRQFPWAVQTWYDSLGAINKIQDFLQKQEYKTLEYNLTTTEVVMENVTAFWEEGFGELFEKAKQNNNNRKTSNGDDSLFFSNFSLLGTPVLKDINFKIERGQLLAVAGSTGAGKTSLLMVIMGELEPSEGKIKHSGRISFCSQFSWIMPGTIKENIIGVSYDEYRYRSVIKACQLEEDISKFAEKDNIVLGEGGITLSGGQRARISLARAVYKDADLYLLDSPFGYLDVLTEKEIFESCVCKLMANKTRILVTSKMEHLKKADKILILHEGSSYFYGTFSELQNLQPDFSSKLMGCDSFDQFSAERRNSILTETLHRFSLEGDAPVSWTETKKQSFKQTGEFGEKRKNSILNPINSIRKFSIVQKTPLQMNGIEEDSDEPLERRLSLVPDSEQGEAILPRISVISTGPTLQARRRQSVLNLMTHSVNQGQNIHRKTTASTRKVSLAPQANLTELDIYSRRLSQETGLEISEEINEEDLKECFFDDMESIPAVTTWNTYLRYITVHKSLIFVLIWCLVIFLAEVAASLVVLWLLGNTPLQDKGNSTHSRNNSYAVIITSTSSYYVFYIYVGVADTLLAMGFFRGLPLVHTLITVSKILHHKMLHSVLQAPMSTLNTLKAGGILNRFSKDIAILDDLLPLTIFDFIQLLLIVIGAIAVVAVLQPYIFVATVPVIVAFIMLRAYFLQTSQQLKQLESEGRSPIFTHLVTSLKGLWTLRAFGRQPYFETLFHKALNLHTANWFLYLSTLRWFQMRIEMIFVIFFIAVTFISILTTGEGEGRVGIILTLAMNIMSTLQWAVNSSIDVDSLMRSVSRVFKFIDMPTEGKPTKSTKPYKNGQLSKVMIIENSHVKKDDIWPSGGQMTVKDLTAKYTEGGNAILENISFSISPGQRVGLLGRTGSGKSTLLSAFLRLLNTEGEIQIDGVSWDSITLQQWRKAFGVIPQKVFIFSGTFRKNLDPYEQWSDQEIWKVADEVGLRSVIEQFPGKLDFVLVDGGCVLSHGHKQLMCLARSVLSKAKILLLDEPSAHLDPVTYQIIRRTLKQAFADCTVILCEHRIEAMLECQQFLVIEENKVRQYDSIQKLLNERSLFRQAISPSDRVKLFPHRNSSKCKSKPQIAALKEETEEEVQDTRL
Sequence of ΔF508-CFTR (Homo sapiens, UniProt P13569, DEL508-508) (P13569 with tags, fused parts or gaps DEL508-508): as above
T2 sequence (P26361 with tags, fused parts or gaps DEL508-508): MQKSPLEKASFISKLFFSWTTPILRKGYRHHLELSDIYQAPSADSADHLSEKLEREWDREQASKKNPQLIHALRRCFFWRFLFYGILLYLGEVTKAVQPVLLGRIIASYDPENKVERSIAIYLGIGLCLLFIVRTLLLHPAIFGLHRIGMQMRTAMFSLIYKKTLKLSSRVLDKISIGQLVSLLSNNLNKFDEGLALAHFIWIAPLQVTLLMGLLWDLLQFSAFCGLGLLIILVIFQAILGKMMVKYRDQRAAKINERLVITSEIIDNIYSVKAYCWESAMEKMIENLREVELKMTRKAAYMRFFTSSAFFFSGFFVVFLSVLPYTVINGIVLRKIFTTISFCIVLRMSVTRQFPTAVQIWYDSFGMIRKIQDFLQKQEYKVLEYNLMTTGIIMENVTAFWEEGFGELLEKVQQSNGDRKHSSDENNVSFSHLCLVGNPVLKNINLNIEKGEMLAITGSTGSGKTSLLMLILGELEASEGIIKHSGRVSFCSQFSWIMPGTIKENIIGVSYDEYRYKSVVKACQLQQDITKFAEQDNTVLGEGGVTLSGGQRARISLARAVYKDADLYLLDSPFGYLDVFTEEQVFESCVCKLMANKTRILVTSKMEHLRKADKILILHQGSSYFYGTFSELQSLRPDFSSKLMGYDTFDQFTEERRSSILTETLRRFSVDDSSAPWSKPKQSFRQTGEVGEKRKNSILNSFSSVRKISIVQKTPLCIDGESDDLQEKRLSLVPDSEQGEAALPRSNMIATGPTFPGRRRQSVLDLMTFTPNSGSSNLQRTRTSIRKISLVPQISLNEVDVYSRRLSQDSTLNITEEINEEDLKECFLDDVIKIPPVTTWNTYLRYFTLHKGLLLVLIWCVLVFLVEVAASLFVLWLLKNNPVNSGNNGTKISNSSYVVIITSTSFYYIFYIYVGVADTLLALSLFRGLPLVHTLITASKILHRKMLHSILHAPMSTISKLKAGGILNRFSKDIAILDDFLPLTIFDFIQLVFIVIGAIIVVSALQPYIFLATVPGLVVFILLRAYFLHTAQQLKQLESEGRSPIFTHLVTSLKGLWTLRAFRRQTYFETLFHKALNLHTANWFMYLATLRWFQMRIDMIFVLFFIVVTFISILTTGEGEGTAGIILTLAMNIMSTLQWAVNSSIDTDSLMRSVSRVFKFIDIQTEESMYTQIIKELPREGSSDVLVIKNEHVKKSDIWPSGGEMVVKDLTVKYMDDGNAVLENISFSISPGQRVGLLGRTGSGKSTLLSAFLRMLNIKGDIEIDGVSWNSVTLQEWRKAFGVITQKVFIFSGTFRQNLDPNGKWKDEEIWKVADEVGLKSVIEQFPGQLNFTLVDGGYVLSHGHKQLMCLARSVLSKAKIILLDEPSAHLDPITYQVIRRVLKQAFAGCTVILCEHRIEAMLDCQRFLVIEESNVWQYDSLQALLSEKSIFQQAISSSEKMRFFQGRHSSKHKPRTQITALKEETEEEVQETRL

O=C(OCC(O)CO)c1ccccc1Nc1ccnc2cc(Cl)ccc12 (stereo not drawn) [Glafenine hydrochloride, 2-[(7-chloro-4-quinolinyl)amino]benzoic acid 2,3-dihydroxypropyl ester]
functional correction in YFP quenching assay [1]: test positive in each case; also recorded: enhanced the cAMP-stimulated iodide influx
remaining activity at 10 µM ([1]; HEK293, nc = 100% pc = 69.2, read-out: % YFP quench): 80%
forskolin+genistein-stimulated current compared to mice fed with saline alone [2]: ~7 fold
ΔF508-CFTR surface expression increase, normalized to BHK cells expressing wild-type CFTR ([3]; 10 μM, 24 h, compared with vehicle alone): 40%
hit in screen (class letter) ([3]; Prestwick library, initial corrector assay, BHK cells): W (Medium and weak hits were defined as compounds giving a cell fluorescence signal that was between 2 and 3 or 1 and 2 standard deviations, respectively, above untreated control wells)
hit in screen (score) ([3]; Prestwick library, initial corrector assay, standard deviations above untreated controls): 1.3
